Test systems include ACHN; BT-549; HCC 2998; HCT-116; HT-29; Hs-578T; IGROV-1; MCF7; NCI-H23; NCI/ADR-RES; OVCAR-8; PC-3; SK-MEL-28; SK-MEL-2; SN12C; SNB-19; SR; U-251; UACC-62; UO-31.
Assay in all cases: NCI-60 cell line screen, 48 h

Each structure is given as a SMILES string.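 Five concentrations, 48 hours, 96-well plates. GI50 is the concentration that inhibits growth by half.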 Active and inactive are the calls of the source. Cut-off read from the data, not from the text of the source: active = GI50 up to about 1.1 µM and inactive = higher.

For `Nc1ccccc1CCCC(=O)O`, the GI50 with ACHN, with BT-549, with HCC 2998, with HCT-116, in the test on HT-29 and in the test on Hs-578T was > 100 µM (inactive) in each case. Further, the GI50 with IGROV-1, with MCF7, with NCI-H23, with NCI/ADR-RES, with OVCAR-8 and in the test with PC-3 was > 100 µM (inactive) each time. Further, the GI50 in the test on SK-MEL-28, in the test with SK-MEL-2, in the test on SN12C, in the test on SNB-19, with SR and with U-251 was > 100 µM (inactive) each time. Also, the GI50 in the test with UACC-62 and with UO-31 was > 100 µM (inactive) in each case.
As to `COc1cc(C2c3cc4c(cc3OC(NNc3ccccc3)C2C)OCO4)cc(OC)c1O` (stereo not given), the GI50 was 0.159 µM (active) in the test on ACHN; 11.4 µM (inactive) in the test with BT-549; 0.331 µM (active) in the test on HCC 2998; 1.52 µM (inactive) in the test on HCT-116; 1.23 µM (inactive) in the test with HT-29; 2.83 µM (inactive) with Hs-578T. Also, the GI50 in the test on IGROV-1 is 3.2 µM (inactive); in the test on MCF7, 2.7 µM (inactive); in the test with NCI-H23 it was 5.6 µM (inactive); in the test with NCI/ADR-RES it was 1.07 µM (active); in the test on OVCAR-8, 1.52 µM (inactive); in the test with PC-3, 0.815 µM (active). In addition, the GI50 is 4.22 µM (inactive) in the test with SK-MEL-28; 0.724 µM (active) in the test with SK-MEL-2; 0.54 µM (active) in the test on SN12C; 6.64 µM (inactive) in the test on SNB-19; 0.207 µM (active) in the test on SR; 2.55 µM (inactive) with U-251. The values for the GI50 in the test with UACC-62 and in the test with UO-31 were 0.132 µM (active) and 1.03 µM (active), respectively.
In the case of `N#Cc1ccccc1NC(=O)C(O)C(O)C(O)C(O)C=O` (stereo not given), the GI50 in the test with ACHN, in the test with BT-549, in the test on HCC 2998, with HCT-116, with HT-29 and in the test on Hs-578T was > 100 µM (inactive) throughout. In addition, the GI50 in the test with IGROV-1, with MCF7, in the test on NCI-H23, with NCI/ADR-RES, in the test with OVCAR-8 and with PC-3 was > 100 µM (inactive) throughout. Besides, the GI50 with SK-MEL-28, with SK-MEL-2, in the test with SN12C, in the test with SNB-19, in the test on SR and in the test with U-251 was > 100 µM (inactive) in each case. Further, the GI50 with UACC-62 and in the test with UO-31 was > 100 µM (inactive) in each case.
On to `Cc1cc(NC(=O)C(=O)Cc2nc3ccccc3s2)ccc1Cl`, for which the GI50 in the test with ACHN, in the test on BT-549, with HCC 2998, with HCT-116, with HT-29 and in the test with Hs-578T was > 100 µM (inactive) each time. Besides, the GI50 with IGROV-1, with MCF7, in the test with NCI-H23, in the test on NCI/ADR-RES, with OVCAR-8 and in the test with PC-3 was > 100 µM (inactive) in each case. The GI50 in the test on SK-MEL-28, in the test with SK-MEL-2, in the test on SN12C, with SNB-19, in the test on SR and with U-251 was > 100 µM (inactive) in each case. Further, the GI50 with UACC-62 and in the test with UO-31 was > 100 µM (inactive) throughout.

The values are drawn from ChEMBL document CHEMBL1201862, “PubChem BioAssay data set” (2004).
